In US4820694A, “Modifications of 3-O-demethylmycinose in macrocin and lactenocin” (priority 1986, dated 1989):
Values after ≈ are worked out from the molar mass of the structure shown. Where two headings read alike, the source gives them in different places.

How the values were obtained:
[1] = tested on: Staphylococcus aureus S13E; assay: microbe, parasite or virus in culture; type: cell-based; settings: Staphylococcus aureus, S13E
Method: (§1) The MIC's in Table III were determined by standard agar-dilution assays. The MIC's in Table IV were obtained using conventional brothdilution microtiter tests.

[2] = tested on: Streptococcus pneumoniae Park I; assay: microbe, parasite or virus in culture; type: cell-based; settings: Streptococcus pneumoniae
Method: as §1

[3] = tested on: Pseudomonas aeruginosa X239; assay: standard agar-dilution MIC assay; type: cell-based; settings: Pseudomonas aeruginosa, X239
Method: as §1

[4] = tested on: Streptococcus Group D X66; assay: standard agar-dilution MIC assay; type: cell-based; settings: read-out: MIC
Method: as §1

[5] = tested on: Streptococcus pyogenes C203; assay: standard agar-dilution MIC assay; type: cell-based; settings: Streptococcus pyogenes, C203
Method: as §1

[6] = tested on: Staphylococcus epidermidis EPI1; assay: standard agar-dilution MIC assay; type: cell-based; settings: Staphylococcus epidermidis, EPI1
Method: as §1

[7] = tested on: Escherichia coli EC14; assay: standard agar-dilution MIC assay; type: cell-based
Method: as §1

[8] = tested on: Klebsiella pneumoniae X68; assay: standard agar-dilution MIC assay; type: cell-based; settings: Klebsiella pneumoniae, X68
Method: as §1

[9] = tested on: Staphylococcus aureus V41; assay: standard agar-dilution MIC assay; type: cell-based; settings: Staphylococcus aureus, V41
Method: as §1

[10] = tested on: Staphylococcus aureus X400; assay: standard agar-dilution MIC assay; type: cell-based; settings: Staphylococcus aureus, X400
Method: as §1

[11] = tested on: Haemophilus influenzae 76; assay: standard agar-dilution MIC assay; type: cell-based; settings: Haemophilus influenzae, 76
Method: as §1

[12] = tested on: Haemophilus influenzae C.L.; assay: standard agar-dilution MIC assay; type: cell-based; settings: Haemophilus influenzae
Method: as §1

[13] = tested on: Staphylococcus epidermidis 222; assay: standard agar-dilution MIC assay; type: cell-based; settings: Staphylococcus epidermidis, 222
Method: as §1

[14] = tested on: Streptococcus Group D 2041; assay: standard agar-dilution MIC assay; type: cell-based; settings: GROUPD2041
Method: as §1

[15] = tested on: Staphylococcus aureus X1.1; assay: standard agar-dilution MIC assay; type: cell-based; settings: Staphylococcus aureus, X1.1
Method: as §1

[16] = tested on: Pasteurella hemolytica 41D; assay: broth-dilution microtiter MIC test; type: cell-based; settings: Pasteurella, 41D
Method: as §1

[17] = tested on: Pasteurella multocida 60A; assay: broth-dilution microtiter MIC test; type: cell-based; settings: Pasteurella multocida, 60A
Method: as §1

[18] = tested on: Pasteurella multocida 17E; assay: broth-dilution microtiter MIC test; type: cell-based; settings: Pasteurella multocida, 17E
Method: as §1

[19] = tested on: Streptococcus sp. 19F; assay: broth-dilution microtiter MIC test; type: cell-based; settings: Streptococcus, SP.19F
Method: as §1

[20] = tested on: Pasteurella multocida 40G; assay: broth-dilution microtiter MIC test; type: cell-based; settings: Pasteurella multocida, 40G
Method: as §1

[21] = tested on: Pasteurella multocida 22A; assay: broth-dilution microtiter MIC test; type: cell-based; settings: Pasteurella multocida, 22A
Method: as §1

[22] = tested on: Pasteurella hemolytica 23C; assay: broth-dilution microtiter MIC test; type: cell-based; settings: Pasteurella, 23C
Method: as §1

[23] = tested on: Mycoplasma gallisepticum 36H; assay: broth-dilution microtiter MIC test; type: cell-based; settings: Mycoplasmoides gallisepticum, 36H
Method: as §1

[24] = tested on: Bordetella bronchiseptica; assay: broth-dilution microtiter MIC test; type: cell-based; settings: Bordetella bronchiseptica
Method: as §1

[25] = tested on: Pasteurella multocida 68C; assay: broth-dilution microtiter MIC test; type: cell-based; settings: Pasteurella multocida, 68C
Method: as §1

[26] = tested on: Staphylococcus aureus 19C; assay: broth-dilution microtiter MIC test; type: cell-based; settings: Staphylococcus aureus, 19C
Method: as §1

[27] = tested on: Mycoplasma hyorhinis 29E; assay: broth-dilution microtiter MIC test; type: cell-based; settings: Mycoplasma, 29E
Method: as §1

[28] = tested on: Mycoplasma synoviae 40A; assay: broth-dilution microtiter MIC test; type: cell-based; settings: Mycoplasmopsis synoviae, 40A
Method: as §1

[29] = tested on: Pasteurella hemolytica 22C; assay: broth-dilution microtiter MIC test; type: cell-based; settings: Pasteurella, 22C
Method: as §1

[30] = tested on: Mycoplasma gallisepticum 15E; assay: broth-dilution microtiter MIC test; type: cell-based; settings: Mycoplasmoides gallisepticum, 15E
Method: as §1

[31] = tested on: Mycoplasma gallisepticum 29C; assay: broth-dilution microtiter MIC test; type: cell-based; settings: Mycoplasmoides gallisepticum, 29C
Method: as §1

[32] = tested on: Streptococcus pyogenes C203; assay: protection of mice experimentally infected with S. pyogenes C203; type: in vivo; settings: C203, sc
How it was run: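 Activity is given as ED50, the mg/kg dose (×2) protecting half of the mice infected with S. pyogenes C203. Compound was dosed 1 and 4 h after infection.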

[33] = tested on: Streptococcus Group D 9960; assay: standard agar-dilution MIC assay; type: cell-based; settings: GROUPD9960, read-out: MIC
Method: as §1

[34] = tested on: Staphylococcus epidermidis EP12; assay: standard agar-dilution MIC assay; type: cell-based
Method: as §1

[35] = agar-dilution, Ampicillin-resistant strain, read-out: MIC
[36] = agar-dilution, Ampicillin-sensitive strain, read-out: MIC

SMILES: CCC1OC(=O)CC(O)C(C)C(OC2OC(C)C(OC(C)=O)C(N(C)C)C2OC(C)=O)C(CCOc2ccccc2)CC(C)C(=O)C=CC(C)=CC1COC1OC(C)C=CC1OC (centres unmarked) [Compound 42, 2',4'-Di-O-acetyl-3",4"-di(dehydrodeoxy)-20-DH-20-O-phenyl-lactenocin]
- MIC [1]: 4 µg/mL (≈ 4.51 µM)
- MIC [2]: 1 µg/mL (≈ 1.13 µM)
- MIC ([3]; agar-dilution, read-out: MIC): > 128 µg/mL
- MIC [4]: 4 µg/mL (≈ 4.51 µM)
- MIC [5]: 1 µg/mL (≈ 1.13 µM)
- MIC [6]: 1 µg/mL (≈ 1.13 µM)
- MIC ([7]; agar-dilution, read-out: MIC): > 128 µg/mL
- MIC ([8]; agar-dilution, read-out: MIC): > 128 µg/mL
- MIC [9]: 0.5 µg/mL (≈ 0.564 µM)
- MIC [10]: 0.5 µg/mL (≈ 0.564 µM)
- MIC [11, 35]: > 128 µg/mL
- MIC [12, 36]: > 128 µg/mL
- MIC [13]: 0.5 µg/mL (≈ 0.564 µM)
- MIC [14]: 4 µg/mL (≈ 4.51 µM)
- MIC [15]: 1 µg/mL (≈ 1.13 µM)

SMILES: CCC1OC(=O)CC(O)C(C)C(OC2OC(C)C(OC3CC(C)(O)C(O)C(C)O3)C(N(C)C)C2OC(C)=O)C(CC=O)CC(C)C(=O)C=CC(C)=CC1COC1OC(C)C(OC(C)=O)C(OC(=O)Cc2ccccc2)C1OC (centres unmarked) [Compound 17, 2',4'"-Di-O-acetyl-3'"-O-phenylacetylmacrocin]
- MIC [1]: 4 µg/mL (≈ 3.62 µM)
- MIC [2]: 1 µg/mL (≈ 0.906 µM)
- MIC [16]: > 50 µg/mL
- MIC [17]: > 50 µg/mL
- MIC [18]: > 50 µg/mL
- MIC [19]: 1.56 µg/mL (≈ 1.41 µM)
- MIC [20]: > 50 µg/mL
- MIC [21]: > 50 µg/mL
- MIC [22]: > 50 µg/mL
- MIC [23]: 12.5 µg/mL (≈ 11.3 µM)
- MIC [24]: > 50 µg/mL
- MIC [25]: > 50 µg/mL
- MIC [26]: 3.12 µg/mL (≈ 2.83 µM)
- MIC [27]: 3.12 µg/mL (≈ 2.83 µM)
- MIC [28]: 1.56 µg/mL (≈ 1.41 µM)
- MIC [29]: > 50 µg/mL
- MIC [30]: 12.5 µg/mL (≈ 11.3 µM)
- MIC [31]: 0.39 µg/mL (≈ 0.353 µM)
- ED50 [32]: > 10 mg/kg
- MIC [3]: > 128 µg/mL
- MIC [4]: 2 µg/mL (≈ 1.81 µM)
- MIC [33]: 2 µg/mL (≈ 1.81 µM)
- MIC [5]: 1 µg/mL (≈ 0.906 µM)
- MIC [6]: 4 µg/mL (≈ 3.62 µM)
- MIC [7]: > 128 µg/mL
- MIC [8]: > 128 µg/mL
- MIC [9]: 2 µg/mL (≈ 1.81 µM)
- MIC [34]: 2 µg/mL (≈ 1.81 µM)
- MIC [10]: 4 µg/mL (≈ 3.62 µM)
- MIC [11]: > 128 µg/mL
- MIC [12]: > 128 µg/mL
- MIC [15]: 2 µg/mL (≈ 1.81 µM)

SMILES: CCC1OC(=O)CC(O)C(C)C(OC2OC(C)C(O)C(N(C)C)C2O)C(CCOc2ccccc2)CC(C)C(=O)C=CC(C)=CC1COC1OC(C)C2OC(C)(C)OC2C1OC (centres unmarked) [Compound 57, 20-DH-20-O-Phenyl-lactenocin-3",4"-isopropylidene Ketal]
- MIC [1]: 4 µg/mL (≈ 4.57 µM)
- MIC [2]: 8 µg/mL (≈ 9.13 µM)
- MIC ([3]; agar-dilution, read-out: MIC): > 128 µg/mL
- MIC [4]: 32 µg/mL (≈ 36.5 µM)
- MIC [5]: 2 µg/mL (≈ 2.28 µM)
- MIC [6]: 4 µg/mL (≈ 4.57 µM)
- MIC ([7]; agar-dilution, read-out: MIC): > 128 µg/mL
- MIC ([8]; agar-dilution, read-out: MIC): > 128 µg/mL
- MIC [9]: 4 µg/mL (≈ 4.57 µM)
- MIC [10]: 4 µg/mL (≈ 4.57 µM)
- MIC [11, 35]: > 128 µg/mL
- MIC [12, 36]: > 128 µg/mL
- MIC [13]: 2 µg/mL (≈ 2.28 µM)
- MIC [14]: 64 µg/mL (≈ 73.1 µM)
- MIC [15]: 4 µg/mL (≈ 4.57 µM)

SMILES: CCC1OC(=O)CC(O)C(C)C(OC2OC(C)C(O)C(N(C)C)C2O)C(CCOc2ccccc2)CC(C)C(=O)C=CC(C)=CC1COC1OC(C)C(OC(C)=O)C(OC(C)=O)C1OC (centres unmarked) [Compound 41, 3",4"-Di-O-acetyl-20-DH-20-O-phenyl-lactenocin]
- MIC [1]: 16 µg/mL (≈ 17.4 µM)
- MIC [2]: 16 µg/mL (≈ 17.4 µM)
- MIC ([3]; agar-dilution, read-out: MIC): > 128 µg/mL
- MIC [4]: 64 µg/mL (≈ 69.6 µM)
- MIC [5]: 16 µg/mL (≈ 17.4 µM)
- MIC [6]: 16 µg/mL (≈ 17.4 µM)
- MIC ([7]; agar-dilution, read-out: MIC): > 128 µg/mL
- MIC ([8]; agar-dilution, read-out: MIC): > 128 µg/mL
- MIC [9]: 16 µg/mL (≈ 17.4 µM)
- MIC [10]: 16 µg/mL (≈ 17.4 µM)
- MIC [11, 35]: > 128 µg/mL
- MIC [12, 36]: > 128 µg/mL
- MIC [13]: 8 µg/mL (≈ 8.69 µM)
- MIC ([14]; agar-dilution, read-out: MIC): 128 µg/mL (≈ 139 µM)
- MIC [15]: 16 µg/mL (≈ 17.4 µM)
